From patent publication US7223834B2, “Assays and peptide substrate for determining aggrecan degrading metallo protease activity” (Bristol-Myers Squibb Pharma Company, priority 1997, dated 2007)

Test system: ADMP
Settings: GLU to GLN substitution at position 373 (P1)

## QTVTWPDMELPLPRNITEGQARGSVILTVK-Biotin [30-IP]
  mode of inhibition of the enzyme: competitive inhibitor
